# Measurements: ChEMBL document CHEMBL1201862, “PubChem BioAssay data set” (2004)
# Activity calls are given as the source filed them.
# Tests used:
# [1] = IC50 of Artemis nuclease activity blockers – biochemical, fluorescence intensity, dose response (AID 720701); assay type: functional;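 also: Artemis endonuclease enzyme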
# [2] = biological target: E3 ubiquitin-protein ligase Mdm2 (Homo sapiens, UniProt Q00987); assay: MDM2-luc reporter signal enhancers, multi-concentration potency testing, MDM2 ubiquitin-protein ligase inhibitor program, whole-cell format, luminescence detection, 384-well microplate (AID 1394); assay type: functional;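 also: MDM2 E3 inhibitors raise luminescence so EC50 is for signal enhancement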
# Chain of E3 ubiquitin-protein ligase Mdm2 (Q00987 whole entry): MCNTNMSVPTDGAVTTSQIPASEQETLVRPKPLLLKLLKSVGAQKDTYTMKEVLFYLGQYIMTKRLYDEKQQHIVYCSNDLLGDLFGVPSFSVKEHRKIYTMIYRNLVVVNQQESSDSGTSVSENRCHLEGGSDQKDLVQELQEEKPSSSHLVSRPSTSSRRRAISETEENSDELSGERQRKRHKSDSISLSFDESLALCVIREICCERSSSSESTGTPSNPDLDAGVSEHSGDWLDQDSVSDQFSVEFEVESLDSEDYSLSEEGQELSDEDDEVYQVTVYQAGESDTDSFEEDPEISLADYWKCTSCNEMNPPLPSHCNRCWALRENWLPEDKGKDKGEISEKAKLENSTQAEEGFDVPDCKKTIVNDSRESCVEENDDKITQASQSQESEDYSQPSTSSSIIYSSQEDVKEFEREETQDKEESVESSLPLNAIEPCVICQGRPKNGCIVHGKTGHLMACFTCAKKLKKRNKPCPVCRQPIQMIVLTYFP
# Vero = assay: cells; assay type: functional; details: Chlorocebus sabaeus
# [3] = Dd2 parasite growth inhibition in erythrocytes – SYBR Green, dry powder samples, set 4, dose response (AID 1159572); assay type: functional, cell-based
# [4] = ATP-based viability loss in HepG2 cells – cell-based, CellTiter-Glo luminescence, dry powder, set 3, cytotoxicity control, dose response (AID 720594); assay type: functional
# [5] = ATP-based viability loss in HEK293T cells – cell-based, CellTiter-Glo luminescence, dry powder, set 2, cytotoxicity control, dose response (AID 720595); assay type: functional; details: HEK293
# [6] = ATP-based viability loss in HeLa cells – cell-based, CellTiter-Glo luminescence, dry powder, set 2, cytotoxicity control, dose response (AID 720593); assay type: functional
# [7] = viability loss in HepG2 hepatoma cells – cell-based, ATP luminescence, cherry-pick, activator set 2, cytotoxicity control, dose response (AID 1053143); assay type: functional
# cells [8] = assay: cells
# cells [9] = details: HEK293
# Heat shock protein HSP90 = Heat shock protein HSP90 (Homo sapiens, UniProt P07900+P08238); assay: Hsp90 blockade concentration-response – dose response (AID 712); assay type: functional
# [10] = M. tuberculosis H37Rv growth inhibitors, H37Rv strain (AID 1626); assay type: functional
# [11] = A549 lung cell viability reduction – CellTiter-Glo luminescence, cherry-pick, cytotoxicity control, dose response (AID 743484); assay type: functional, cell-based
# [12] = HepG2 viability loss by ATP level – cell-based, CellTiter-Glo luminescence, cherry-pick, set 4, cytotoxicity control, dose response (AID 743480); assay type: functional
# Paired box protein Pax-8 = Paired box protein Pax-8 (Homo sapiens, UniProt Q06710); assay: PAX8 transcriptional activity inhibition in RMG-I – RMG-I cells, luciferase, cherry-pick, dose response (AID 687027); assay type: functional, cell-based;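 also: luciferase reporter driven by Pax8 target thyroperoxidase promoter measured by SteadyGlo luminescence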
# Chain of Paired box protein Pax-8 (Q06710 whole entry): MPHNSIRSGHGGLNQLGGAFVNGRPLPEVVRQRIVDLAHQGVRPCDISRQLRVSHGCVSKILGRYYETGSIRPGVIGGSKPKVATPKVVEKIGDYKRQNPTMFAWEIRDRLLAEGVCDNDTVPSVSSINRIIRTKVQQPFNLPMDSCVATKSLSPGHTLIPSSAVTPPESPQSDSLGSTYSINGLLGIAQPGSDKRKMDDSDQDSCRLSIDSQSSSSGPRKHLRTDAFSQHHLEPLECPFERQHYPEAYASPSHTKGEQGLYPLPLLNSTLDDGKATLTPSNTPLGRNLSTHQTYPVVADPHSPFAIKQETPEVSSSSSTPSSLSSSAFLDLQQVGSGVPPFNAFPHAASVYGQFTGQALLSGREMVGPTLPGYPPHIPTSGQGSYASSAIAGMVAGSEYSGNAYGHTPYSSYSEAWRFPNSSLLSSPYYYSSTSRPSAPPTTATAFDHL
# [13] = toxicity toward immortalized ovarian surface epithelium – cell-based, plate reader, dry powder samples, cytotoxicity control for PAX8 inhibitor project, dose response (AID 743045); assay type: functional
# [14] = OVCAR-3 cell viability loss – plate reader, dry powder samples, PAX8 inhibitor project, dose response (AID 743044); assay type: functional, cell-based
# [15] = IGROV1 cell killing – plate reader, dry powder samples, PAX8 inhibitor project, dose response (AID 743043); assay type: functional, cell-based; details: IGROV-1
# [16] = OVCAR8 cell viability loss – plate reader, dry powder samples, PAX8 project, dose response (AID 743197); assay type: functional, cell-based; details: OVCAR-8
# [17] = biological target: T1, Low molecular weight phosphotyrosine protein phosphatase (Homo sapiens, UniProt P24666); assay: inhibition of LMPTP-A enzymatic activity – biochemical, OMFP substrate, fluorescence intensity, set 2, dose response (AID 743307); assay type: functional
# T1 sequence (P24666 whole entry): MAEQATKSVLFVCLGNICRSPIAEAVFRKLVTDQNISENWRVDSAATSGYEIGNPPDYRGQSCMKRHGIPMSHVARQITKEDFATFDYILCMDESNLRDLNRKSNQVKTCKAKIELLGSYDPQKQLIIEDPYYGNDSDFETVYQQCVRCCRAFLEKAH
# [18] = biological target: T1, Low molecular weight phosphotyrosine protein phosphatase; assay: inhibition of human LMPTP enzyme activity – biochemical, absorbance, pNPP substrate, LMPTP-A isoform, set 2, orthogonal assay, dose response (AID 743308); assay type: functional
# [19] = A2780 cell killing – plate reader, dry powder samples, cytotoxicity control, dose response (AID 743046); assay type: functional, cell-based
# NADPH oxidase 1 = biological target: T2, NADPH oxidase 1 (Homo sapiens, UniProt Q9Y5S8); assay: Late-stage luminescence-based cell-based dose response assay to identify inhibitors of NADPH oxidase 1 (NOX1): Synthesized analogs.; assay type: functional
# T2 sequence (Q9Y5S8 whole entry): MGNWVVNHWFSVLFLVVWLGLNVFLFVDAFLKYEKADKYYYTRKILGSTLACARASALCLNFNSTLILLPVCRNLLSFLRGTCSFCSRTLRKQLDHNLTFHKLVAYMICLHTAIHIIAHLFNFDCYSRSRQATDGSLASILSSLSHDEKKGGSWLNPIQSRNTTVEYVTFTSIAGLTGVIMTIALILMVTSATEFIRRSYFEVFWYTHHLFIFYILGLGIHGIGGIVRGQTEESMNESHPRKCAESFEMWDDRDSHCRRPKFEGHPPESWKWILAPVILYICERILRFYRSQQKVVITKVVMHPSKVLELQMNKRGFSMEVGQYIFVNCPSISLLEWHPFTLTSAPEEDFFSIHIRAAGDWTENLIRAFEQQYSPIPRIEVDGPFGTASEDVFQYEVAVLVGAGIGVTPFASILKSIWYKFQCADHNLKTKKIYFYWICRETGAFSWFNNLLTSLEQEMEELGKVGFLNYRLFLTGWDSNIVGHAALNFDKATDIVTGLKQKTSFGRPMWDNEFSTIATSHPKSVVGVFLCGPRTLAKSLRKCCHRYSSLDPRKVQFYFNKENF
# [20] = viability loss in THP-1 monocytes – THP-1 cells, cytotoxicity control for Vif-APOBEC3G degradation inhibitor project, dose response (AID 1117359); assay type: functional; details: THP-1
compound,measurement,setting,value
CCCCn1/c(=N/C(=O)c2ccc3c(c2)OCO3)c(C#N)cc2c(=O)n3cccc(C)c3nc21,IC50,[1],> 20 µM (inactive)
CCOC(=O)N1C/C(=C\c2ccccc2)C(=O)/C(=C/c2ccccc2)C1,EC50,[2],0.61 µM (active)
same,CC50,Vero,23 µM (active)
COc1ccc2c3c([nH]c2c1)[C@H](CO)NCC31CCN(C(=O)Nc2ccccc2F)CC1,AC50,[3],1.52 µM (active)
CSc1ccc(-c2nnc(NC(=O)c3ccc(S(=O)(=O)N4CCC(C)CC4)cc3)o2)cc1,AC50,[4],> 52 µM (inactive)
same,AC50,[5],9.24 µM (active)
same,AC50,[6],> 52 µM (inactive)
Cc1nc(-c2ccc(C(=O)Nc3ccc(F)cc3)cc2)cs1,AC50,[7],26 µM (active)
Cn1c2ccccc2c(=O)c2ccc(F)cc21,AC50,cells [8],7.33 µM (active)
same,AC50,cells [9],> 52 µM (inactive)
Cc1cccc(NC(=O)c2c(O)c3cccc4c3n(c2=O)CCC4)n1,IC50,Heat shock protein HSP90,> 50 µM
COc1ccc(NC(=O)c2ccc(-c3ccc([N+](=O)[O-])cc3)o2)cc1,IC50,[10],> 100 µM (active)
same,AC50,[11],> 52 µM (inactive)
same,AC50,[12],> 52 µM (inactive)
Cc1ccc(S(=O)(=O)Nc2ccc3c(c2)C(=O)N([C@H](C)CO)C[C@@H](C)[C@@H](CN(C)Cc2ccc(C(F)(F)F)cc2)OCCCC[C@@H](C)O3)cc1,AC50,Paired box protein Pax-8,5.57 µM (active)
same,AC50,[13],53.7 µM (active)
same,AC50,[14],36 µM (active)
same,AC50,[15],54.4 µM (active)
same,AC50,[16],39.6 µM (active)
c1ccc(-c2nc(NC3CCCCC3)c3ccccc3n2)cc1,IC50,[17],19.1 µM (active)
same,IC50,[18],> 80 µM (inactive)
COc1ccc(-c2ccc3c(c2)[C@@H]2[C@@H](CCN2C(=O)NC2CCCCC2)[C@@H](CO)N3C)cc1,AC50,Paired box protein Pax-8,14.5 µM (active)
same,AC50,[19],0.292 µM (active)
same,AC50,[16],37.8 µM (active)
COC(=O)Nc1ccc2c(c1)N(C(=O)CCCl)c1ccccc1S2,IC50,NADPH oxidase 1,> 50 µM (not active)
CCC(C)(c1nnnn1-c1c(C)cccc1C)N(N=O)c1ccccc1Cl (stereo unspecified),CC50,[20],> 40 µM (active)
